Data taken from publication PMC9400227, “αvβ3 integrin-specific exosomes engineered with cyclopeptide for targeted delivery of triptolide against malignant melanoma” (Journal of Nanobiotechnology, 2022).
In brackets after ≈: the same amount, converted by molar mass.

Key:
[1] = tested on: A375 cells; test: CCK-8 cytotoxicity assay; assay type: cell-based; details: Homo sapiens, A-375, 24 h
Description: A375 cells were incubated with different concentrations of TP for 24 h. After that, 10 μL of CCK-8 was added to the treated cells and incubated for another 20 min. The absorbance was detected using a microplate reader.

[2] = tested on: A375 cells; test: Cell cycle assay (PI staining); assay type: cell-based, human; details: 24 h
Description: The cell cycle assay was carried out to explore the correlation between mitosis and cytotoxicity. […] The treated cells were then fixed with 70% ethanol for 12 h, washed with PBS 3 times, and stained with propidium iodide/RNase A for 30 min. After that, the red fluorescence of differently treated cells was recorded at 488 nm, and the DNA content of cells was also analyzed.

[3] = tested on: A375 cells; test: Transwell invasion assay; assay type: cell-based, human; details: A375 cells pretreated 6 h, Transwell with Matrigel 24 h
Description: Then, the differently treated cells were incubated in the apical Transwell insert (24-well plant covered with Matrigel polycarbonate membranes, pore size 8 μm). Meanwhile, 800 μL of DMEM with 10% FBS used for cell chemotaxis was added to the basolateral champers. After incubation for 24 h, the cells on the top side of the apical chamber were wiped, and then the migrated cells were fixed with 4% paraformaldehyde and stained with 0.1% crystal violet. After that, five random fields under an inverted microscope were visualized, and the migrated cells were counted by ImageJ software.

[4] = tested on: A375 cells; test: Cell apoptosis assay (Annexin V-APC/7-AAD flow cytometry); details: 24 h
Description: Then, the cells were trypsinized by pancreatic enzymes without DMSO and resuspended in 500 μL 1× Binding Buffer. The cell suspension was stationarily cultured at room temperature for 15 min in the dark after adding 7-AAD and Annexin V-APC. Subsequently, cell apoptosis and necrosis were detected with a flow cytometer.

[5] = In vivo antitumor efficacy in A375 xenograft tumor model; details: tumor-bearing mice, Kaplan–Meier; control 25.5 days
[6] = mouse, in vivo
Description: Briefly, the mouse bodyweight of all groups was recorded throughout the treatment period. To evaluate systemic safety, after the termination of treatment, the tissues of the heart, liver, spleen, lung, and kidney were collected to calculate organ indexes [mass of the organ (mg)/bodyweight (g)] and to stain for H&E. In addition, orbital blood was sampled for a routine blood test, hepatic function test and renal function test, including RBC, WBC, ALT, and Cr.

[7] = Plasma pharmacokinetics in tumor-bearing mice; details: nude, mouse, in vivo, iv, 600 ug/kg
Description: The TP concentrations in blood, heart, liver, spleen, lung, kidney, and tumor tissues were also quantified over time. […] The preparations were injected intravenously at drug-equivalent doses of 600 μg/kg TP. After injection, blood was sampled from the orbital vein at 5 min, 10 min, 15 min, 30 min, 1 h, 2 h, 4 h, 6 h, and 24 h. In addition, heart, liver, spleen, lung, kidney, and tumor tissues were collected at 5 min, 30 min, 1 h, 2 h, 4 h, 6 h, and 24 h. Nine mice were sacrificed at each time point (n = 3), whereas at 10 min and 15 min, the mice were only taken for blood and were not killed. The TP concentration in plasma and tissue homogenate was analyzed with UHPLC-MS/MS.
TP concentrations in cells, plasma, primary organs, and tumors were analyzed using UHPLC-MS/MS (Thermo Fisher Scientific, CA, USA). The separation was performed on an ACQUITY UPLCTM BEH C18 column (2.1 × 100 mm, i.d., 1.7 μm). The column temperature was maintained at 40 °C. The mobile phases were 1% acetic acid aqueous solution (A) and methanol (B). Isocratic elution with 40% A and 60% B was adopted at a flow rate of […]. The temperature and flow rate of dry gas (N2) were 350 °C and 8 L/min, respectively. The pressure of the nebulizer gas (N2) was 40 psi. The capillary voltage was […]. The positive multiple reaction monitoring (MRM) mode was adopted to determine TP and carbamazepine (internal standard, IS). The collision energy was 33 eV for both TP and IS. The precursor-to-product transitions were m/z 361.1 → 105.2 for TP and m/z 237.1 → 194.0 for IS.

[8] = tested on: malignant melanoma; parameters: method as in PMID 31564801; details: chemotherapeutic drug for MM; cited from earlier work

Row | SMILES | IC50 [1] [µg/mL] | cell population of the S phase ([2]; control 8.07 ± 0.39%) [%] | cell population of the G0/G1 phase ([2]; control 88.91 ± 0.81%) [%] | invasion inhibition rate [3] [%] | apoptosis and necrosis (mortal cells) [4] [%] | mean survival time [5] [days] | ALT (alanine aminotransferase) [6] [U/L] | Cr (creatinine) [6] [µmol/L] | H&E staining of normal tissues [6] | RBC (red blood cell) [6] | WBC (white blood cell) [6] | mice bodyweight during the treatment period [6] | organ indexes versus control [6] | AUC(0-inf) [7] [ng·h/mL] | Cmax [7] [ng/mL] | MRT [7] [min] | clearance [7] [mL/min/kg] | half-life [7] [min] | total effective rate [8]
1 | CC(C)[C@]12O[C@H]1[C@@H]1O[C@]13[C@]1(O[C@H]1C[C@H]1C4=C(CC[C@@]13C)C(=O)OC4)[C@@H]2O [TP, triptolide] | 0.0696 (≈ 0.193 µM) | 17.73 ± 0.79 | 72.87 ± 3.71 | 45.54 ± 6.35 | 22.10 ± 1.66 | 29.5 | 76.25 ± 4.03 | 27.76 ± 1.52 | heart, liver, and kidney were damaged | 8.11 ± 0.65 × 10^12/L | 6.73 ± 0.51 × 10^9/L | suffered a bodyweight loss | significantly lower than those of the control mice | 1400 ± 81.4 | 612 ± 100 | 3.6 ± 1.8 | 36.6 | 18.6 ± 3.6 | 
2 | CN(C)/N=N/c1[nH]cnc1C(N)=O [dacarbazine] |  |  |  |  |  |  |  |  |  |  |  |  |  |  |  |  |  |  | 10–15%
